These results are taken from publication PMC12374823, “A Small Molecule Selectively Targets N-Myc to Suppress Neuroblastoma Cancer Progression” (International Journal of Biological Sciences, 2025).

The target of one assay is T1, c-Myc (Homo sapiens, UniProt P01106).
T1 construct: c-Myc^1-439
Kind of assay: microscale thermophoresis (MST) with labeled recombinant c-Myc. The assay is classed as binding.

The next assay deals with T2, N-Myc (Homo sapiens, UniProt P04198).
T2 construct: gene MYCN; N-Myc^1-464
T2 sequence (P04198 1-464): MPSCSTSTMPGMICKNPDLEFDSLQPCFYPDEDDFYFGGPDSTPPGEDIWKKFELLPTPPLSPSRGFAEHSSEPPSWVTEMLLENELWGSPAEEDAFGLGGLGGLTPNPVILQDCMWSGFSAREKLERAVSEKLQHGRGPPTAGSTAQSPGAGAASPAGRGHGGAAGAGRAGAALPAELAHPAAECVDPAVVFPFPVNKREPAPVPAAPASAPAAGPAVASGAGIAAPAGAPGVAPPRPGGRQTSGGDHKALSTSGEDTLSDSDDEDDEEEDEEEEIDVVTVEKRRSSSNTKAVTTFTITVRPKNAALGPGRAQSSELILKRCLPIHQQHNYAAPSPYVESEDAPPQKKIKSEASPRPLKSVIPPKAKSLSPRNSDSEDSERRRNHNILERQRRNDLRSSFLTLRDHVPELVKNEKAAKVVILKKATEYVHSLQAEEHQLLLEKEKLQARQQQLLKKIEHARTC
Kind of assay: microscale thermophoresis (MST) with labeled purified N-Myc; supported by CETSA in cells. The assay is classed as binding.

T1 sequence (P01106 16-454): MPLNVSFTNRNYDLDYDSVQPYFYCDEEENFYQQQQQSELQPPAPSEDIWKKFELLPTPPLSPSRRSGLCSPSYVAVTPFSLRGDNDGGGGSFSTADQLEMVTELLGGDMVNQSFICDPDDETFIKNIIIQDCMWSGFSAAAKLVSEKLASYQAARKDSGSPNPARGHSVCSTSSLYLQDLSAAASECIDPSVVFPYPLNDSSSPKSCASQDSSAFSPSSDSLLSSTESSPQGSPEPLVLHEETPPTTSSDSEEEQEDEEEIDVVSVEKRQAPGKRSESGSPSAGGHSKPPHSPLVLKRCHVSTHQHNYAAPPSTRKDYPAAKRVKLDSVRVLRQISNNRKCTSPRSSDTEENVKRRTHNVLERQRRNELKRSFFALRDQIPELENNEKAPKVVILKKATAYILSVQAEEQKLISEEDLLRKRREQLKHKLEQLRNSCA

Regarding `COc1ccc(-n2nc3ccc(NC(=O)CBr)cc3n2)cc1` [N78], the figures for the Kd at c-Myc and on N-Myc were 8.48 ± 2.61 µM and 1.47 ± 0.52 µM, respectively.
